Measured values: US20260048046A1, “METHOD FOR IMPROVING GROWTH PERFORMANCE IN FEEDLOT CATTLE” (Elanco US Inc., priority 2022, published 2026)
Marks after values point to notes of the source that are not given here.

Test system: beef feedlot cattle
Assay: 56-d study: carcass characteristics
Type: in vivo
Set-up: Marbling score, difference from control: scale not given here
Conditions: for YG 1, proportion of cattle graded / YG 2, proportion of cattle graded / YG 3, proportion of cattle graded / YG 4, proportion of cattle graded / YG 5, proportion of cattle graded: arithmetic mean; for Adjusted fat thickness / Dressing percentage / KPH fat / Ribeye Area / Yield grade / carcass weight (HCW) / Marbling score: 56 d treatment, steers, LS mean; for Marbling score: 400 Small, 500 Modest, 600 Moderate
Method: LUB was removed from feed at least 24 h before harvest to comply with the Food Use Authorization (FDA, 2016) granted by the FDA. Cattle were loaded for harvest shortly after collection of final pen live weights and transported to the slaughter facility at a stocking density of approximately 30 steers (i.e., half a pen of 60 steers) in one semi-trailer. The slaughter process was conducted in accordance with USDA requirements and standard slaughter site procedures. Animal/carcass identification was maintained by sequentially recording the ear tag numbers of cattle as they were slaughtered via a sequence number affixed to each carcass by trained personnel from the Beef Carcass Research Center (BCRC; West Texas A&M University, Canyon, TX) and correlating the individual ear tag number to the plant-assigned carcass ID number, which remained intact throughout the carcass data/sample collection phase. Following an industry-standard dressing procedure, each carcass was weighed for determination of HCW.
Carcass evaluation occurred following the commercial plant's standard chilling period. The carcass quality and yield grade factors, marbling score, ribeye area, and objective 12th rib fat thickness were captured objectively using the VBG2000 camera system. Additionally, adjusted 12th rib fat thickness, kidney, pelvic, and heart (KPH) fat assessment, and other defects (dark cutters, blood splash, etc.) were recorded by trained personnel (BCRC). Skeletal maturity was obtained only on carcasses that were “B” maturity or greater, otherwise, skeletal, lean, and overall maturity and lean color were not obtained.
Carcass defects (dark cutters, excessive trim) were noted by exception. The objective fat thickness was used to calculate the USDA yield grade. All carcasses were considered to be less than 30 mo of age; therefore, USDA quality grade was determined by using marbling score (USDA, 2019). The severity of the dark cutting condition was indicated by assigning the dark cutting carcasses to ⅓, ⅔, or full dark categories. Dark cutters were not excluded when determining quality grade, however, a summary of the frequency of dark cutter carcasses by treatment group is provided. Carcasses identified as excessively trimmed (greater than approximately 9.1 kg trim) were not excluded from the analysis, however, a summary of the frequency of excessively trimmed carcasses by treatment group is provided.
The label claim variable of cumulative NH3 gas emissions over the treatment period normalized by final BW (with d −59 BW as a covariate) for the period and HCW (g of gas kg^−1 of BW or g of gas kg^−1 HCW) was determined by utilizing NH3 gas emissions equations developed from the LUB clinical effectiveness study (FDA-FOI, 2018) and validated using animals of similar BW as described by Brown et al. (2019). The pen was the experimental unit for each outcome. Differences were deemed significant using a two-sided test at Ptrt≤0.05, however, a less stringent significance threshold of Ptrt≤0.10 was used for abnormal health observations. Fixed effect of treatment and random effects of time replicate and block within time replicate were included in the model. Discrete variables were analyzed using a generalized linear mixed model, Proc GLIMMIX SAS version 9.4 unless there were convergence problems due to sparseness of data. A binomial distribution was assumed and a logit link used in the analysis. Contrasts were constructed between the CON group and each non-CON dosage group, and differences were deemed significant at Pdose≤0.05. If convergence problems arose due to sparseness of data, Fisher's exact test (binomial data; Proc FREQ in SAS) or Wilcoxon's rank-sum test (categorical data; Proc NARIWAY in SAS) was used to evaluate differences between the CON group and the non-CON dosage groups. In all cases except for health observations, differences were deemed significant at Ptrt≤0.05 for these primary discrete variables. […]

[1] = 3.5 and 5.5 mg kg^−1 LUB groups, 56 d, Ptrt≤0.05
[2] = all LUB groups, 56 d, Ptrt≤0.05

**Q.** For `CC(C)(Cc1ccc(Oc2ncccc2C#N)cc1)NC[C@H](O)COc1ccccc1-c1cccs1` [LUB, 2-{4-[2-({(2S)-2-Hydroxy-3-[2-(2-thienyl)phenoxy]propyl}amino)-2-methylpropyl]phenoxy}nicotinonitrile], which “Frequency of dark cutter carcasses” value (1.5 mg kg^−1 LUB group, 56 d) is on record?
**A.** The value was 0.6%.

**Q.** What about the “Frequency of excessively trimmed carcasses” value (1.5 mg kg^−1 LUB group, 56 d) of the same compound?
**A.** The value was 1.4%.

**Q.** And the “YG 1, proportion of cattle graded” value (1.5 mg·kg^−1 DM LUB, 56 d)?
**A.** The value was 5.4%.

**Q.** What about the “YG 2, proportion of cattle graded” value (1.5 mg·kg^−1 DM LUB, 56 d) of the same compound?
**A.** The value was 25.8^x %.

**Q.** What about the “YG 3, proportion of cattle graded” value (1.5 mg·kg^−1 DM LUB, 56 d) of the same compound?
**A.** The value was 49.0%.

**Q.** And the “YG 4, proportion of cattle graded” value (1.5 mg·kg^−1 DM LUB, 56 d)?
**A.** Its value is 17.1^y %.

**Q.** What about the “YG 5, proportion of cattle graded” value (1.5 mg·kg^−1 DM LUB, 56 d) of the same compound?
**A.** The value was 2.7%.

**Q.** What about the “KPH fat, difference from control” value (1.5 mg·kg^−1 vs. control, 56 d) of the same compound?
**A.** The value was 0.01%.

**Q.** And the “Marbling score, difference from control” value (1.5 mg·kg^−1 vs. control, 56 d)?
**A.** Its value is −13.0.

**Q.** And the “Marbling score, percent change from Control” value (from here on “Marbling score, percent change”) (1.5 mg·kg^−1 vs. control, 56 d)?
**A.** The value was −2.8%.

**Q.** What about the “Ribeye area, difference from control” value (1.5 mg·kg^−1 vs. control, 56 d) of the same compound?
**A.** Its value is 3.3 cm^2.

**Q.** And the “Ribeye area, percent change from Control” value (1.5 mg·kg^−1 vs. control, 56 d)?
**A.** Its value is 3.5%.

**Q.** What about the “carcass weight (HCW), difference from control” value (1.5 mg·kg^−1 vs. control, 56 d) of the same compound?
**A.** Its value is 11.3 kg.

**Q.** What about the “carcass weight (HCW), percent change from Control” value (1.5 mg·kg^−1 vs. control, 56 d) of the same compound?
**A.** Its value is 2.8%.

**Q.** What about the “Frequency of dark cutter carcasses” value (3.5 mg kg^−1 LUB group, 56 d) of the same compound?
**A.** Its value is 0.3%.

**Q.** And the “Frequency of excessively trimmed carcasses” value (3.5 mg kg^−1 LUB group, 56 d)?
**A.** Its value is 1.8%.

**Q.** And the “YG 1, proportion of cattle graded” value (3.5 mg·kg^−1 DM LUB, 56 d)?
**A.** Its value is 5.5%.

**Q.** What about the “YG 2, proportion of cattle graded” value (3.5 mg·kg^−1 DM LUB, 56 d) of the same compound?
**A.** The value was 31.5^y %.

**Q.** And the “YG 3, proportion of cattle graded” value (3.5 mg·kg^−1 DM LUB, 56 d)?
**A.** The value was 44.0%.

**Q.** What about the “YG 4, proportion of cattle graded” value (3.5 mg·kg^−1 DM LUB, 56 d) of the same compound?
**A.** Its value is 17.3^y %.

**Q.** What about the “YG 5, proportion of cattle graded” value (3.5 mg·kg^−1 DM LUB, 56 d) of the same compound?
**A.** Its value is 1.7%.

**Q.** And the “KPH fat, difference from control” value (3.5 mg·kg^−1 vs. control, 56 d)?
**A.** Its value is 0.01%.

**Q.** What about the “Marbling score, difference from control” value (3.5 mg·kg^−1 vs. control, 56 d) of the same compound?
**A.** The value was −23.0.

**Q.** What about the “Marbling score, percent change” value (3.5 mg·kg^−1 vs. control, 56 d) of the same compound?
**A.** The value was −4.9%.

**Q.** What about the “Ribeye area, difference from control” value (3.5 mg·kg^−1 vs. control, 56 d) of the same compound?
**A.** The value was 5.4 cm^2.

**Q.** What about the “Ribeye area, percent change from Control” value (3.5 mg·kg^−1 vs. control, 56 d) of the same compound?
**A.** Its value is 5.8%.

**Q.** And the “carcass weight (HCW), difference from control” value (3.5 mg·kg^−1 vs. control, 56 d)?
**A.** Its value is 15.9 kg.

**Q.** What about the “carcass weight (HCW), percent change from Control” value (3.5 mg·kg^−1 vs. control, 56 d) of the same compound?
**A.** The value was 3.9%.

**Q.** What about the “Frequency of dark cutter carcasses” value (5.5 mg kg^−1 LUB group, 56 d) of the same compound?
**A.** The value was 0.1%.

**Q.** And the “Frequency of excessively trimmed carcasses” value (5.5 mg kg^−1 LUB group, 56 d)?
**A.** The value was 1.4%.

**Q.** And the “YG 1, proportion of cattle graded” value (5.5 mg·kg^−1 DM LUB, 56 d)?
**A.** Its value is 6.2%.

**Q.** And the “YG 2, proportion of cattle graded” value (5.5 mg·kg^−1 DM LUB, 56 d)?
**A.** Its value is 31.6^y %.

**Q.** And the “YG 3, proportion of cattle graded” value (5.5 mg·kg^−1 DM LUB, 56 d)?
**A.** The value was 44.2%.

**Q.** And the “YG 4, proportion of cattle graded” value (5.5 mg·kg^−1 DM LUB, 56 d)?
**A.** Its value is 16.0^y %.

**Q.** What about the “YG 5, proportion of cattle graded” value (5.5 mg·kg^−1 DM LUB, 56 d) of the same compound?
**A.** Its value is 2.0%.

**Q.** And the “KPH fat, difference from control” value (5.5 mg·kg^−1 vs. control, 56 d)?
**A.** Its value is 0.03%.

**Q.** What about the “Marbling score, difference from control” value (5.5 mg·kg^−1 vs. control, 56 d) of the same compound?
**A.** Its value is −27.0.

**Q.** And the “Marbling score, percent change” value (5.5 mg·kg^−1 vs. control, 56 d)?
**A.** Its value is −5.7%.

**Q.** And the “Ribeye area, difference from control” value (5.5 mg·kg^−1 vs. control, 56 d)?
**A.** The value was 5.7 cm^2.

**Q.** What about the “Ribeye area, percent change from Control” value (5.5 mg·kg^−1 vs. control, 56 d) of the same compound?
**A.** The value was 6.1%.

**Q.** And the “carcass weight (HCW), difference from control” value (5.5 mg·kg^−1 vs. control, 56 d)?
**A.** The value was 17.1 kg.

**Q.** And the “carcass weight (HCW), percent change from Control” value (5.5 mg·kg^−1 vs. control, 56 d)?
**A.** The value was 4.2%.

**Q.** And the “Proportion of carcasses grading Select compared to CON” value [1]?
**A.** The value was “increased”.

**Q.** And the “Yield grade 2 compared to CON” value [1]?
**A.** Its value is “increased”.

**Q.** What about the Adjusted fat thickness (LUB 1.5 mg·kg^−1 DM) of the same compound?
**A.** Its Adjusted fat thickness is 1.53 cm.

**Q.** What about the Dressing percentage (LUB 1.5 mg·kg^−1 DM) of the same compound?
**A.** The Dressing percentage was 61.8%.

**Q.** What about the KPH fat (LUB 1.5 mg·kg^−1 DM) of the same compound?
**A.** The KPH fat was 2.12%.

**Q.** And the Ribeye Area (LUB 1.5 mg·kg^−1 DM)?
**A.** The Ribeye Area was 97.0 cm^2.

**Q.** And the Yield grade (LUB 1.5 mg·kg^−1 DM)?
**A.** The Yield grade was 3.14.

**Q.** What about the “carcass weight (HCW)” value (LUB 1.5 mg·kg^−1 DM) of the same compound?
**A.** Its value is 418.3 kg.

**Q.** And the Marbling score (LUB 1.5 mg·kg^−1 DM)?
**A.** The Marbling score was 460.

**Q.** And the Adjusted fat thickness (LUB 3.5 mg·kg^−1 DM)?
**A.** The Adjusted fat thickness was 1.48 cm.

**Q.** And the Dressing percentage (LUB 3.5 mg·kg^−1 DM)?
**A.** Its Dressing percentage is 62.1%.

**Q.** And the KPH fat (LUB 3.5 mg·kg^−1 DM)?
**A.** Its KPH fat is 2.12%.

**Q.** And the Ribeye Area (LUB 3.5 mg·kg^−1 DM)?
**A.** The Ribeye Area was 99.1 cm^2.

**Q.** And the Yield grade (LUB 3.5 mg·kg^−1 DM)?
**A.** Its Yield grade is 3.02.

**Q.** What about the “carcass weight (HCW)” value (LUB 3.5 mg·kg^−1 DM) of the same compound?
**A.** Its value is 423.9 kg.

**Q.** What about the Marbling score (LUB 3.5 mg·kg^−1 DM) of the same compound?
**A.** Its Marbling score is 450.

**Q.** What about the Adjusted fat thickness (LUB 5.5 mg·kg^−1 DM) of the same compound?
**A.** Its Adjusted fat thickness is 1.48 cm.

**Q.** What about the Dressing percentage (LUB 5.5 mg·kg^−1 DM) of the same compound?
**A.** Its Dressing percentage is 62.3%.

**Q.** And the KPH fat (LUB 5.5 mg·kg^−1 DM)?
**A.** The KPH fat was 2.14%.

**Q.** What about the Ribeye Area (LUB 5.5 mg·kg^−1 DM) of the same compound?
**A.** The Ribeye Area was 99.4 cm^2.

**Q.** And the Yield grade (LUB 5.5 mg·kg^−1 DM)?
**A.** Its Yield grade is 3.01.

**Q.** And the “carcass weight (HCW)” value (LUB 5.5 mg·kg^−1 DM)?
**A.** Its value is 425.1 kg.

**Q.** And the “Proportion of carcasses grading Upper 2/3 Choice compared to CON” value [2]?
**A.** The value was “decreased”.

**Q.** What about the “Yield grade 4 compared to CON” value [2] of the same compound?
**A.** The value was “decreased”.
